One data set concerns Phytophthora infestans. The data set can be described thus: whole plant or invertebrate. Conditions: in Solanum lycopersicum, foliar, read-out: disease control. In kind it is in vivo.
For another data set, the system named is Plasmopara viticola. The data set can be described thus: Plasmopara viticola/Grape/Leaf Disc Preventative (Grape Downy Mildew). Type of data set: in vivo. Conditions: foliar, grape vine leaf disks, inoculated 1 day after application, assessed 6-8 days after application, read-out: disease control. The method, then:
Plasmopara viticola/Grape/Leaf Disc Preventative (Grape Downy Mildew)
Grape vine leaf disks are placed on water agar in multiwell plates (24-well format) and sprayed with the formulated test compound diluted in water. The leaf disks are inoculated with a spore suspension of the fungus 1 day after application. The inoculated leaf disks are incubated at 19° C. and 80% rh under a light regime of 12 h light/12 h darkness in a climate cabinet and the activity of a compound is assessed as percent disease control compared to untreated when an appropriate level of disease damage appears in untreated check leaf disks (6-8 days after application).

A word on the melting point: it is the temperature, or range, at which the solid turns liquid.

Where “and” joins values, the source holds several entries; their conditions need not be identical. Identical values can stand only once.

`Cc1cc(C(F)(F)F)nn1CC(=O)N1CCC(c2nc(NC(=O)[C@@H]3CCCc4ccccc43)cs2)CC1` [I.g.001, (R)-1,2,3,4-tetrahydro-naphthalene-1-carboxylic acid (2-{1-[2-(5-methyl-3-trifluoromethyl-pyrazol-1-yl)-acetyl]-piperidin-4-yl}-thiazol-4-yl)amide] returned a melting point of 175 °C. The pest or weed control at 200 ppm with Phytophthora infestans was ≥ 80%. Further, in the data set on Plasmopara viticola, the pest or weed control at 200 ppm is ≥ 80%.

Regarding `Cc1cc(C(F)(F)F)nn1CC(=O)N1CCC(c2nc(NC(=O)C3CCCc4ccccc43)cs2)CC1` (centres unmarked) [I.g.011, 1,2,3,4-tetrahydro-naphthalene-1-carboxylic acid (2-{1-[2-(5-methyl-3-trifluoromethyl-pyrazol-1-yl)-acetyl]-piperidin-4-yl}-thiazol-4-yl)amide], the melting point was 179 to 181 °C and 179.2 to 181.3 °C. Besides, in the data set on Phytophthora infestans, the pest or weed control at 200 ppm was ≥ 80%. Further, the pest or weed control at 200 ppm in the data set on Plasmopara viticola was ≥ 80%.

For the compound `Cc1cc(C(F)(F)F)nn1CC(=O)N1CCC(c2nc(NC(=O)OC3CCCc4ccccc43)cs2)CC1` (centres unmarked) [I.g.013, (2-{1-[2-(5-methyl-3-trifluoromethyl-pyrazol-1-yl)-acetyl]-piperidin-4-yl}-thiazol-4-yl)-carbamic acid 1,2,3,4-tetrahydro-naphthalen-1-yl ester], the pest or weed control at 200 ppm with Phytophthora infestans and in the data set on Plasmopara viticola was ≥ 80% in each case.

`Cc1cc(C(F)(F)F)nn1CC(=O)N1CCC(c2nc(NC(=O)Nc3ccccc3)cs2)CC1` [I.g.024, 1-(2-{1-[2-(5-methyl-3-trifluoromethyl-pyrazol-1-yl)-acetyl]-piperidin-4-yl}-thiazol-4-yl)-3-phenyl-urea]: the melting point worked out at 192.6 °C. Further, in the data set with Phytophthora infestans, the pest or weed control at 200 ppm was ≥ 80%. In the data set with Plasmopara viticola, the pest or weed control at 200 ppm is ≥ 80%.

In the case of `Cc1ccc(C)c(CC(=O)N2CCC(c3nc(NC(=O)C4CCCc5ccccc54)cs3)CC2)c1` (centres unmarked) [I.g.136, 1,2,3,4-tetrahydro-naphthalene-1-carboxylic acid (2-{1-[2-(2,5-dimethylphenyl)-acetyl]-piperidin-4-yl}-thiazol-4-yl)-amide], the pest or weed control at 200 ppm in the data set with Phytophthora infestans was ≥ 80%.

As for `Cc1ccc(C)c(CS(=O)(=O)N2CCC(c3nc(NC(=O)c4ccccc4)cs3)CC2)c1` [I.g.246, N-{2-[1-(2,5-Dimethyl-phenylmethanesulfonyl)-piperidin-4-yl]-thiazol-4-yl}-benzamide], the melting point lay in the range of 173 to 175 °C. Besides, the pest or weed control at 200 ppm in the data set with Plasmopara viticola is ≥ 80%.

As for `Cc1ccccc1CC(=O)N1CCC(c2nc(NC(=O)C3CCCc4ccccc43)cs2)CC1` (centres unmarked) [I.g.386, 1,2,3,4-tetrahydro-naphthalene-1-carboxylic acid {2-[1-(2-o-tolyl-acetyl)-piperidin-4-yl]thiazol-4-yl}-amide], the melting point lay in the range of 174 to 175 °C. The pest or weed control at 200 ppm with Phytophthora infestans is ≥ 80%. For the same compound, the pest or weed control at 200 ppm in the data set on Plasmopara viticola was ≥ 80%.

For `Cc1cc(C(F)(F)F)nn1CC(=O)N1CCC(c2nc(NC(=O)c3cccc(F)c3O)cs2)CC1` [I.g.501, 3-fluoro-2-hydroxy-N-(2-{1-[2-(5-methyl-3-trifluoromethyl-pyrazol-1-yl)-acetyl]-piperidin-4-yl}-thiazol-4-yl)-benzamide], the pest or weed control at 200 ppm with Phytophthora infestans and in the data set with Plasmopara viticola was ≥ 80% in each case.

`Cc1cc(C(F)(F)F)nn1CC(=O)N1CCC(c2nc(NC(=O)c3cccc(Br)c3O)cs2)CC1` [I.g.502, 3-bromo-2-hydroxy-N-(2-{1-[2-(5-methyl-3-trifluoromethyl-pyrazol-1-yl)-acetyl]-piperidin-4-yl}-thiazol-4-yl)-benzamide] displayed a melting point of 193 to 195 °C.

For the compound `Cc1cc(C(F)(F)F)nn1CC(=O)N1CCC(c2nc(NC(=O)c3ccccc3O)cs2)CC1` [I.g.503, 2-hydroxy-N-(2-{1-[2-(5-methyl-3-trifluoromethyl-pyrazol-1-yl)-acetyl]-piperidin-4-yl}-thiazol-4-yl)-benzamide], the pest or weed control at 200 ppm in the data set with Phytophthora infestans and in the data set with Plasmopara viticola was ≥ 80% throughout.

As for `Cc1ccc(S(=O)(=O)Nc2ccccc2C(=O)Nc2csc(C3CCN(C(=O)Cn4nc(C(F)(F)F)cc4C)CC3)n2)cc1` [I.g.508, N-(2-{1-[2-(5-methyl-3-trifluoromethyl-pyrazol-1-yl)-acetyl]-piperidin-4-yl}-thiazol-4-yl)-2-(toluene-4-sulfonylamino)-benzamide], the pest or weed control at 200 ppm with Phytophthora infestans and with Plasmopara viticola was ≥ 80% in each case.

In the case of `COc1cccc(O)c1C(=O)Nc1csc(C2CCN(C(=O)Cn3nc(C(F)(F)F)cc3C)CC2)n1` [I.g.509, 2-methoxy-6-hydroxy-N-(2-{1-[2-(5-methyl-3-trifluoromethyl-pyrazol-1-yl)-acetyl]-piperidin-4-yl}-thiazol-4-yl)-benzamide], the pest or weed control at 200 ppm in the data set on Phytophthora infestans and in the data set on Plasmopara viticola was ≥ 80% each time.

Take `Cc1cc(C(F)(F)F)nn1CC(=O)N1CCC(c2nc(NC(=O)c3c(O)cccc3F)cs2)CC1` [I.g.510, 2-fluoro-6-hydroxy-N-(2-{1-[2-(5-methyl-3-trifluoromethyl-pyrazol-1-yl)-acetyl]-piperidin-4-yl}-thiazol-4-yl)-benzamide]: the pest or weed control at 200 ppm with Phytophthora infestans and in the data set with Plasmopara viticola was ≥ 80% in each case.

In the case of `COc1cccc(C(=O)Nc2csc(C3CCN(C(=O)Cn4nc(C(F)(F)F)cc4C)CC3)n2)c1O` [I.g.511, 3-methoxy-2-hydroxy-N-(2-{1-[2-(5-methyl-3-trifluoromethyl-pyrazol-1-yl)-acetyl]-piperidin-4-yl}-thiazol-4-yl)-benzamide], the pest or weed control at 200 ppm in the data set on Phytophthora infestans is ≥ 80%.

Consider `Cc1cc(C(F)(F)F)nn1CC(=O)N1CCC(c2nc(N(C)C(=O)C3CCCc4ccccc43)cs2)CC1` (centres unmarked) [I.h.011, 1,2,3,4-tetrahydro-naphthalene-1-carboxylic acid methyl-(2-{1-[2-(5-methyl-3-trifluoromethyl-pyrazol-1-yl)-acetyl]-piperidin-4-yl}-thiazol-4-yl)-amide], for which, in the data set on Phytophthora infestans, the pest or weed control at 200 ppm was ≥ 80%.

Turning to `Cc1cc(C(F)(F)F)nn1CC(=O)N1CCN(c2nc(NC(=O)C3CCCc4ccccc43)cs2)CC1` (centres unmarked) [I.n.011, 1,2,3,4-Tetrahydro-naphthalene-1-carboxylic acid (2-{4-[2-(5-methyl-3-trifluoromethyl-pyrazol-1-yl)acetyl]-piperazin-1-yl}-thiazol-4-yl)amide], the melting point lay within 207 to 209 °C. Also, the pest or weed control at 200 ppm with Phytophthora infestans was ≥ 80%. Besides, the pest or weed control at 200 ppm in the data set with Plasmopara viticola was ≥ 80%.

As for `Cc1cc(C(F)(F)F)nn1CC(=O)N1CCN(c2nc(NC(=O)c3ccccc3)cs2)CC1` [I.n.021, N-(2-{4-[2-(5-methyl-3-trifluoromethyl-pyrazol-1-yl)-acetyl]-piperazin-1-yl}-thiazol-4-yl)-benzamide], the pest or weed control at 200 ppm in the data set on Phytophthora infestans and in the data set on Plasmopara viticola was ≥ 80% throughout.

These data come from patent publication US8557821B2 (priority 2009, dated 2013).
